According to PMC10816276 (International Journal of Molecular Sciences, 2024):
Entries after “also recorded” stand apart in the source; their conditions may differ.

Tests used:
ICR mice = assay: Acute oral toxicity, 14 days; format: in vivo; conditions: for Death rate / Death toll (♀/♂): 20 mice; for Toxic Symptoms (♀/♂) Perianal Uncleanliness / Toxic Symptoms (♀/♂) Prone State / Toxic Symptoms (♀/♂) Reduced Activities / Toxic Symptoms (♀/♂) Shortness of Breath: n = 20 mice
Protocol: I. Animals. […] Male and female mice were raised separately in sterile PC transparent cages in the room with a 12 h light-dark cycle. The animal procedures followed the guidelines of the National Institute of Health Guide for the Care and Use of Laboratory Animals and were approved by the Institutional Animal Care and Use Committee (IACUC) of Yunnan Institute of Materia Medica.
II. Acute oral_toxicity. […] In this experiment, a 5% sodium carboxymethyl cellulose solution (5% CMC-Na) was chosen as the Vehicle and the solvent for 6′-O-caffeoylarbutin. […] Each mouse in the Vehicle group received an administration of 40 mL∙kg-1 of 5% CMC-Na. The treatment groups were orally administrated 6′-O-caffeoylarbutin twice within a 24_h period, with an interval of approximately 3.5–4.0 h, by dissolving in 5% CMC-Na at three different concentrations. Following administration, all animals in each group were closely monitored for about 2–5 h to observe any physical changes, monitor body weight, and record the death rate. The surviving mice were observed and monitored for an additional 14 days, with their body weight recorded on the 1st, 3rd, 7th, and 14th days. Animals that died during the experimental period or those that survived until the conclusion of the toxicity test were subjected to necropsy, and their organs were histopathologically observed and analyzed. All studies were conducted in accordance with the requirements of Good Laboratory Practice.

zebrafish = test system: zebrafish; set-up: method as in PMID 24498931; conditions: live zebrafish model; cited from earlier work

O=C(C=Cc1ccc(O)c(O)c1)OCC1OC(Oc2ccc(O)cc2)C(O)C(O)C1O (stereo not drawn) [6′-O-caffeoylarbutin]
Death rate (ICR mice; CA-1, 28056 mg·kg-1 oral): 25% | Death toll (♀/♂) (ICR mice; CA-1, 28056 mg·kg-1 oral): 3/2 | Toxic Symptoms (♀/♂) Perianal Uncleanliness (ICR mice; CA-1, 28,056 mg·kg^−1 oral): 0 | Toxic Symptoms (♀/♂) Prone State (ICR mice; CA-1, 28,056 mg·kg^−1 oral): 2 (0/2) | Toxic Symptoms (♀/♂) Reduced Activities (ICR mice; CA-1, 28,056 mg·kg^−1 oral): 8 (2/6) | Toxic Symptoms (♀/♂) Shortness of Breath (ICR mice; CA-1, 28,056 mg·kg^−1 oral): 4 (2/2) | Body weight gain (ICR mice; CA-1, Female mice): 2.22 ± 0.62 g | body weight, 1st day after the delivery (ICR mice; CA-1, Female mice): 22.26±0.97 | body weight, 3rd day after the delivery (ICR mice; CA-1, Female mice): 24.28±1.18 | body weight, 7th day after the delivery (ICR mice; CA-1, Female mice): 24.88±1.09 | body weight, 14th day after the delivery (ICR mice; CA-1, Female mice): 27.10±1.39 | Body weight gain (ICR mice; CA-1, Male mice): 2.65 ± 1.01 g | body weight, 1st day after the delivery (ICR mice; CA-1, Male mice): 30.75±2.11 | body weight, 3rd day after the delivery (ICR mice; CA-1, Male mice): 33.62±2.35 | body weight, 7th day after the delivery (ICR mice; CA-1, Male mice): 35.25±2.53 | body weight, 14th day after the delivery (ICR mice; CA-1, Male mice): 37.90±3.13 | Death rate (ICR mice; CA-2, 23848 mg·kg-1 oral): 5% | Death toll (♀/♂) (ICR mice; CA-2, 23848 mg·kg-1 oral): 0/1 | Toxic Symptoms (♀/♂) Perianal Uncleanliness (ICR mice; CA-2, 23,848 mg·kg^−1 oral): 0 | Toxic Symptoms (♀/♂) Prone State (ICR mice; CA-2, 23,848 mg·kg^−1 oral): 0 | Toxic Symptoms (♀/♂) Reduced Activities (ICR mice; CA-2, 23,848 mg·kg^−1 oral): 1 (0/1) | Toxic Symptoms (♀/♂) Shortness of Breath (ICR mice; CA-2, 23,848 mg·kg^−1 oral): 0 | Body weight gain (ICR mice; CA-2, Female mice): 1.88 ± 1.17 g | body weight, 1st day after the delivery (ICR mice; CA-2, Female mice): 21.58±1.21 | body weight, 7th day after the delivery (ICR mice; CA-2, Female mice): 23.59±0.50 | body weight, 14th day after the delivery (ICR mice; CA-2, Female mice): 25.47±1.36 | Body weight gain (ICR mice; CA-2, Male mice): 3.38 ± 1.23 g | body weight, 1st day after the delivery (ICR mice; CA-2, Male mice): 30.91±0.87 | body weight, 3rd day after the delivery (ICR mice; CA-2, Male mice): 33.07±1.24 | body weight, 7th day after the delivery (ICR mice; CA-2, Male mice): 33.88±1.71 | body weight, 14th day after the delivery (ICR mice; CA-2, Male mice): 37.26±2.19 | Death toll (♀/♂) (ICR mice; CA-3, 20272 mg·kg-1 oral): 0/0 | Toxic Symptoms (♀/♂) Perianal Uncleanliness (ICR mice; CA-3, 20,272 mg·kg^−1 oral): 0 | Toxic Symptoms (♀/♂) Prone State (ICR mice; CA-3, 20,272 mg·kg^−1 oral): 0 | Toxic Symptoms (♀/♂) Reduced Activities (ICR mice; CA-3, 20,272 mg·kg^−1 oral): 0 | Toxic Symptoms (♀/♂) Shortness of Breath (ICR mice; CA-3, 20,272 mg·kg^−1 oral): 0 | Body weight gain (ICR mice; CA-3, Female mice): 2.41 ± 1.51 g | body weight, 1st day after the delivery (ICR mice; CA-3, Female mice): 22.21±0.87 | body weight, 3rd day after the delivery (ICR mice; CA-3, Female mice): 23.36±0.66 | body weight, 14th day after the delivery (ICR mice; CA-3, Female mice): 26.62±1.54 | Body weight gain (ICR mice; CA-3, Male mice): 1.45 ± 3.11 g | body weight, 1st day after the delivery (ICR mice; CA-3, Male mice): 30.89±1.57 | body weight, 3rd day after the delivery (ICR mice; CA-3, Male mice): 33.88±1.41 | body weight, 7th day after the delivery (ICR mice; CA-3, Male mice): 35.33±1.44 | body weight, 14th day after the delivery (ICR mice; CA-3, Male mice): 36.78±3.53 | deaths (ICR mice; mouse, in vivo): no deaths | inhibitory effect on melanin production relative to beta-arbutin (zebrafish): approximately two-fold higher; also recorded: approximately twice as potent as that of beta-arbutin | toxicity level relative to beta-arbutin (zebrafish): around half that of beta-arbutin
